In patent US10131652B2, “Pyrimidinyloxy benzene derivatives as herbicides” (E. I. DU PONT DE NEMOURS AND COMPANY, priority 2014, dated 2018):

Legend:
Assay type in all cases: in vivo
[1] = tested on: wheat (Triticum aestivum); assay: Test B pre-/postemergence plant response
Text: (§1) Seeds of plant species selected from bamyardgrass (Echinochloa crus-galli), kochia (Kochia scoparia), ragweed (common ragweed, Ambrosia elatior), Italian ryegrass (Lolium multiflorum), large (Lg) crabgrass (Digitaria sanguinalis), giant foxtail (Setaria faberii), momingglory (Ipomoea spp.), pigweed (Amaranthus retroflexus), velvetleaf (Abutilon theophrasti), wheat (Triticum aestivum), and corn (Zea mays) were planted into a blend of loam soil and sand and treated preemergence with a directed soil spray using test chemicals formulated in a non-phytotoxic solvent mixture which included a surfactant. At the same time, plants selected from these crop and weed species and also blackgrass (Alopecurus myosuroides), and galium (catchweed bedstraw, Galium aparine) were planted in pots containing the same blend of loam soil and sand and treated with postemergence applications of test chemicals formulated in the same manner. Plants ranged in height from 2 to 10 cm and were in the one- to two-leaf stage for the postemergence treatment. Treated plants and untreated controls were maintained in a greenhouse for approximately 10 days, after which time all treated plants were compared to untreated controls and visually evaluated for injury. Plant response ratings, summarized in Table B, are based on a 0 to 100 scale where 0 is no effect and 100 is complete control. A dash (-) response means no test result.

kochia (Kochia scoparia) = assay: Test B pre-/postemergence plant response
Text: as §1

[2] = tested on: Italian ryegrass (Lolium multiflorum); assay: Test B pre-/postemergence plant response
Text: as §1

[3] = tested on: ragweed (common ragweed, Ambrosia elatior); assay: Test B pre-/postemergence plant response
Text: as §1

[4] = tested on: pigweed (Amaranthus retroflexus); assay: Test B pre-/postemergence plant response
Text: as §1

[5] = tested on: barnyardgrass (Echinochloa crus-galli); assay: Test B pre-/postemergence plant response
Text: as §1

corn (Zea mays) = assay: Test B pre-/postemergence plant response
Text: as §1

[6] = tested on: giant foxtail (Setaria faberii); assay: Test B pre-/postemergence plant response
Text: as §1

[7] = tested on: small-flower umbrella sedge (Cyperus difformis); assay: Test C flooded paddy test plant response; details: Flood, 250 g ai/ha; scale of 0 to 100 where 0 is no effect and 100 is complete control; 13 to 15 days
Outline: (§2)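 Flooded-pot format, 3 cm water over soil maintained for the test duration; test compounds dispensed into the water at the 2-leaf stage. Greenhouse holding 13 to 15 days. Plants evaluated visually relative to untreated controls, 0 meaning no effect and 100 complete control.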

[8] = tested on: ducksalad (Heteranthera limosa); assay: Test C flooded paddy test plant response; details: Flood, 250 g ai/ha; scale of 0 to 100 where 0 is no effect and 100 is complete control; 13 to 15 days
Outline: as §2

[9] = tested on: barnyardgrass (Echinochloa crus-galli); assay: Test C flooded paddy test plant response; details: Flood, 250 g ai/ha; scale of 0 to 100 where 0 is no effect and 100 is complete control; 13 to 15 days
Outline: as §2

rice (Oryza sativa) = assay: Test C flooded paddy test plant response; details: Flood, 250 g ai/ha; scale of 0 to 100 where 0 is no effect and 100 is complete control; 13 to 15 days
Outline: as §2

[10] = tested on: blackgrass (Alopecurus myosuroides); assay: Test B postemergence plant response
Outline: (§3)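 Values are visual control ratings (0 to 100) recorded approximately 10 days after postemergence application to greenhouse-grown plants of 2 to 10 cm, one- to two-leaf stage, each judged against untreated controls.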

[11] = tested on: galium (catchweed bedstraw, Galium aparine); assay: Test B postemergence plant response
Outline: as §3

[12] = 125 g ai/ha, postemergence, 0 to 100 scale, 0 no effect, 100 complete control
[13] = Postemergence, 31 g ai/ha, 0 to 100 scale (0 no effect, 100 complete control)
[14] = 31 g ai/ha, Preemergence, 0 to 100 scale where 0 is no effect and 100 is complete control
[15] = Preemergence, 125 g ai/ha, 0 to 100 scale (0 no effect, 100 complete control)
[16] = Postemergence, 500 g ai/ha, 0 to 100 scale (0 no effect, 100 complete control)
[17] = Preemergence, 125 g ai/ha, 0 to 100 scale where 0 is no effect and 100 is complete control
[18] = Preemergence, 500 g ai/ha, 0 to 100 scale where 0 is no effect and 100 is complete control

Q: With `Clc1cnc(Oc2ccccc2-c2cc(Cl)cnn2)nc1` [Compound 189] as the compound, how does the “Plant response rating, Wheat” value [1, 12] read?
A: 0

Q: And the “Plant response rating, Wheat” value [1, 13]?
A: 0

Q: And the “Plant response rating, Kochia” value (kochia (Kochia scoparia); [14])?
A: 0

Q: And the “Plant response rating, Kochia” value (kochia (Kochia scoparia); [12])?
A: 0

Q: What about the “Plant response rating, Kochia” value (kochia (Kochia scoparia); [13]) of the same compound?
A: 0

Q: What about the “Kochia plant response rating” value (kochia (Kochia scoparia); [15]) of the same compound?
A: 0

Q: And the “Plant response rating, Ryegrass, Italian” value [2, 14]?
A: 0

Q: And the “Plant response rating, Ryegrass, Italian” value [2, 12]?
A: 0

Q: What about the “Plant response rating, Ryegrass, Italian” value [2, 13] of the same compound?
A: 0

Q: And the “Ryegrass, Italian plant response rating” value [2, 15]?
A: 0

Q: And the “Plant response rating, Ragweed” value [3, 14]?
A: 0

Q: And the “Plant response rating, Ragweed” value [3, 12]?
A: 0

Q: And the “Plant response rating, Ragweed” value [3, 13]?
A: 0

Q: What about the “Ragweed plant response rating” value [3, 15] of the same compound?
A: 0

Q: What about the “Plant response rating, Pigweed” value [4, 14] of the same compound?
A: 0

Q: And the “Plant response rating, Pigweed” value [4, 12]?
A: 0

Q: What about the “Plant response rating, Pigweed” value [4, 13] of the same compound?
A: 0

Q: And the “Pigweed plant response rating” value [4, 15]?
A: 0

Q: What about the “Plant response rating, Barnyardgrass” value [5, 14] of the same compound?
A: 0

Q: And the “Plant response rating, Barnyardgrass” value [5, 12]?
A: 0

Q: And the “Plant response rating, Barnyardgrass” value [5, 13]?
A: 0

Q: And the “Barnyardgrass plant response rating” value [5, 15]?
A: 0

Q: What about the “Plant response rating, Corn” value (corn (Zea mays); [12]) of the same compound?
A: 0

Q: What about the “Plant response rating, Corn” value (corn (Zea mays); [13]) of the same compound?
A: 0

Q: And the “Plant response rating, Foxtail, Giant” value [6, 14]?
A: 0

Q: And the “Plant response rating, Foxtail, Giant” value [6, 12]?
A: 0

Q: What about the “Plant response rating, Foxtail, Giant” value [6, 13] of the same compound?
A: 0

Q: And the “Foxtail, Giant plant response rating” value [6, 15]?
A: 0

Q: And the “Sedge, Umbrella plant response rating” value [7]?
A: 0

Q: What about the “Ducksalad plant response rating” value [8] of the same compound?
A: 0

Q: And the “Barnyardgrass plant response rating” value [9]?
A: 0

Q: And the “Rice plant response rating” value (rice (Oryza sativa))?
A: 0

Q: And the “Plant response rating, Blackgrass” value [10, 12]?
A: 0

Q: And the “Plant response rating, Blackgrass” value [10, 13]?
A: 0

Q: What about the “Plant response rating, Galium” value [11, 12] of the same compound?
A: 0

Q: What about the “Plant response rating, Galium” value [11, 13] of the same compound?
A: 0

Q: Which results are given for `CC(C)(C)c1cc(-c2ccccc2Oc2ncc(Cl)cn2)no1` [Compound 59]?
A: Plant response rating, Wheat [1, 12]: 0; Plant response rating, Wheat [1, 16]: 10; Plant response rating, Kochia (kochia (Kochia scoparia); [12]): 0; Plant response rating, Kochia (kochia (Kochia scoparia); [16]): 20; Plant response rating, Kochia (kochia (Kochia scoparia); [17]): 0; Plant response rating, Kochia (kochia (Kochia scoparia); [18]): 0; Plant response rating, Ryegrass, Italian [2, 12]: 0; Plant response rating, Ryegrass, Italian [2, 16]: 0; Plant response rating, Ryegrass, Italian [2, 17]: 0; Plant response rating, Ryegrass, Italian [2, 18]: 0; Plant response rating, Ragweed [3, 12]: 0; Plant response rating, Ragweed [3, 16]: 0; Plant response rating, Ragweed [3, 17]: 0; Plant response rating, Ragweed [3, 18]: 0; Plant response rating, Pigweed [4, 12]: 40; Plant response rating, Pigweed [4, 16]: 50; Plant response rating, Pigweed [4, 17]: 0; Plant response rating, Pigweed [4, 18]: 30; Plant response rating, Barnyardgrass [5, 12]: 10; Plant response rating, Barnyardgrass [5, 16]: 10; Plant response rating, Barnyardgrass [5, 17]: 0; Plant response rating, Barnyardgrass [5, 18]: 10; Plant response rating, Corn (corn (Zea mays); [12]): 0; Plant response rating, Corn (corn (Zea mays); [16]): 10; Plant response rating, Foxtail, Giant [6, 12]: 10; Plant response rating, Foxtail, Giant [6, 16]: 50; Plant response rating, Foxtail, Giant [6, 17]: 10; Plant response rating, Foxtail, Giant [6, 18]: 60; Sedge, Umbrella plant response rating [7]: 0; Ducksalad plant response rating [8]: 0; Barnyardgrass plant response rating [9]: 0; Rice plant response rating (rice (Oryza sativa)): 0; Plant response rating, Blackgrass [10, 12]: 0; Plant response rating, Blackgrass [10, 16]: 40; Plant response rating, Galium [11, 12]: 40; Plant response rating, Galium [11, 16]: 90
